Assay results published in patent US20120263754A1, “Methods for Enhancing Immunogen Specific Immune Responses by Vectored Vaccines” (priority 2011, published 2012).

Test system: CD8 T cell response to the epitope AH1A5
Test: Adjuvant mixed with DC-NILV encoding AH1A5 and administered together subcutaneously; ICS/FACS
Format: in vivo, BALB/c mice
Details: adjuvant mixed with DC-NILV AH1A5 1 μg p24, s.c.; 4 or 20 μg GLA, 4 μg LPS; spleen cells day 10
Protocol: FIG. 2 illustrates the effect of two adjuvants, GLA and lipopolysaccharide (LPS), on the immune response to the CD8 T cell epitope AH1A5. The lentiviral vector encoding AH1A5 (SinVarl FUW AH1A5 (1 μg p24)) was mixed with PBS (control group), 4 μg GLA, 20 μg GLA, or 4 μg LPS and then administered subcutaneously (s.c.) to groups of BALB/C mice. After 10 days, spleen cells were isolated from animals in each group, and the CD8 T cell response was evaluated by determining the level of TNF-α and IFN-γ by intracellular cytokine staining (ICS) followed by fluorescence activated cell sorting (FACS). The values shown are the mean percentage ±SEM of CD8 T cells that are positive for IFN-γ. Data are also shown from spleen cells obtained from mice that were not injected with the lentiviral vector (no LV).
The effect of two adjuvants, GLA and lipopolysaccharide (LPS), on the immune response to the CD8 T cell epitope AH1A5 was determined. DC-NILV encoding AH1A5 (1 μg p24) was mixed with PBS (control group), 4 μg GLA, 20 μg GLA, or 4 μg lipopolysaccaride (LPS) and then administered subcutaneously (s.c.) to groups of BALB/c mice. After 10 days, spleen cells were isolated from animals in each group, and the CD8 T cell response was evaluated by determining the level of TNF-α and IFN-γ by intracellular cytokine staining (ICS) followed by fluorescence activated cell sorting (FACS). […]

lipopolysaccharide [LPS]
effect of coadministered adjuvant on vaccine-induced immune responses (CD8 T cells, TNF-α and IFN-γ): inhibitory effect
